Assay results from ChEMBL document CHEMBL3091305, “Metabolism-guided discovery of a potent and orally bioavailable urea-based calcimimetic for the treatment of secondary hyperparathyroidism” (Bioorg Med Chem Lett, 2013).

What was measured:
in vivo [1] = settings: Sprague-Dawley, rat, po, 2 mg/kg
in vivo [2] = settings: Sprague-Dawley, rat, iv, 0.5 mg/kg

| Structure (SMILES) | bioavailability (in vivo [1]) [%] | clearance (in vivo [2]) [mL/min/kg] |
| --- | --- | --- |
| NS(=O)(=O)c1ccc(-c2nsc(NC(=O)N(CCC(c3ccc(F)cc3)c3ccc(F)cc3)CCN3CCOCC3)n2)cc1 | 39 | 26.7 |
| CS(=O)(=O)Nc1ccc(-c2csc(NC(=O)N(CCC(c3ccccc3)c3ccccc3)CCN3CCOCC3)n2)cc1 | – | 63.3 |
